Source: patent publication US11795150B2, “Synthesis of triethylenetetramines” (Philera New Zealand Limited, priority 2004, dated 2023)

Conditions: 80° C. for nine days

Row | SMILES | Changes in IR, 1H-NMR and DSC after heat exposure
1 | NCCNCCNCCN.O=C(O)/C=C/C(=O)O.O=C(O)/C=C/C(=O)O.O=C(O)/C=C/C(=O)O.O=C(O)/C=C/C(=O)O [Fumaric, triethylenetetramine tetrafumarate] | no changes
2 | NCCNCCNCCN.O=C(O)/C=C\C(=O)O.O=C(O)/C=C\C(=O)O.O=C(O)/C=C\C(=O)O.O=C(O)/C=C\C(=O)O [Maleic, triethylenetetramine tetramaleate] | no changes
3 | NCCNCCNCCN.O=C(O)CCC(=O)O.O=C(O)CCC(=O)O [Succinic, triethylenetetramine disuccinate] | no changes
